Measurements as given in PMC6199744, “Development of Chemical Proteomics for the Folateome and Analysis of the Kinetoplastid Folateome” (ACS Infectious Diseases, 2018).
Like-named read-outs stand apart in the source and are kept apart here.

Key:
Type in all cases: binding
[1] = target: T1, HeLa cell extract proteins (Homo sapiens, UniProt P07686)
T1 construct: endogenous in cells; host or cells: HeLa cell extract
T1 sequence (P07686 122-556): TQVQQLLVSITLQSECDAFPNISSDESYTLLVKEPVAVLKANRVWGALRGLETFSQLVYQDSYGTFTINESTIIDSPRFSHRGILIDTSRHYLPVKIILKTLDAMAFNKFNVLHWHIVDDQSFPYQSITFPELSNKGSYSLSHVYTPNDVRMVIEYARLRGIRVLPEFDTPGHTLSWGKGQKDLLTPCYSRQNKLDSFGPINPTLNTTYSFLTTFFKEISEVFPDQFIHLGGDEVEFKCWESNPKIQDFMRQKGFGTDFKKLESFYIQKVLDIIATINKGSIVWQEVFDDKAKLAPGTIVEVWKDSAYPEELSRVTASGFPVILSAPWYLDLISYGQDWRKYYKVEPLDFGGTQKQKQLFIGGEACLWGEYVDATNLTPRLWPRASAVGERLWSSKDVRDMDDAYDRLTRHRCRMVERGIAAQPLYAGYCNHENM

[2] = target: T2, HeLa cell extract proteins (Homo sapiens, UniProt P24752)
T2 construct: endogenous in cells; host or cells: HeLa cell extract
T2 sequence (P24752 34-427): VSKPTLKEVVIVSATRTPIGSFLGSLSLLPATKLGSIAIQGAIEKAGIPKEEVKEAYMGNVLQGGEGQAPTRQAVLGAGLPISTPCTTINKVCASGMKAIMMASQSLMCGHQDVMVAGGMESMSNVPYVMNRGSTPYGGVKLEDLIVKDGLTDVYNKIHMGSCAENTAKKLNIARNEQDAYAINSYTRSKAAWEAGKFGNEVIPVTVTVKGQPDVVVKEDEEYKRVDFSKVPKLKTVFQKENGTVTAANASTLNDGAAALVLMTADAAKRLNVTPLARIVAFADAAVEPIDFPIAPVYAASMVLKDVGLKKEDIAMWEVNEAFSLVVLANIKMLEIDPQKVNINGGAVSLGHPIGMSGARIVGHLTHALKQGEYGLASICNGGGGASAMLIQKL

[3] = target: T3, HeLa cell extract proteins (Homo sapiens, UniProt P36542)
T3 construct: endogenous in cells; host or cells: HeLa cell extract
T3 sequence (P36542 26-298): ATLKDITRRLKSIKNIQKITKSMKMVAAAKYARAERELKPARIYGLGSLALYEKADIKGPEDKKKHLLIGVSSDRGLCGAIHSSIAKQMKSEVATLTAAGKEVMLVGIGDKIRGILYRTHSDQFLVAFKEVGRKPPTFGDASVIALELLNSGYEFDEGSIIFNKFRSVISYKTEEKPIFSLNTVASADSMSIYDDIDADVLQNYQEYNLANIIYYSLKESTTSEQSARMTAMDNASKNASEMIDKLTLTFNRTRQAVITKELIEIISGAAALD

[4] = target: T4, HeLa cell extract proteins (Homo sapiens, UniProt P53634)
T4 construct: endogenous in cells; host or cells: HeLa cell extract

[5] = target: T5, HeLa cell extract proteins (Homo sapiens, UniProt Q15436)
T5 construct: endogenous in cells; host or cells: HeLa cell extract

[6] = target: T6, HeLa cell extract proteins (Homo sapiens, UniProt Q9BQB6)
T6 construct: endogenous in cells; host or cells: HeLa cell extract

[7] = target: T7, HeLa cell extract proteins (Homo sapiens, UniProt Q9NR09)
T7 construct: endogenous in cells; host or cells: HeLa cell extract

[8] = target: T8, HeLa cell extract proteins (Homo sapiens, UniProt Q9UBV8)
T8 construct: endogenous in cells; host or cells: HeLa cell extract
T8 sequence (Q9UBV8 1-284): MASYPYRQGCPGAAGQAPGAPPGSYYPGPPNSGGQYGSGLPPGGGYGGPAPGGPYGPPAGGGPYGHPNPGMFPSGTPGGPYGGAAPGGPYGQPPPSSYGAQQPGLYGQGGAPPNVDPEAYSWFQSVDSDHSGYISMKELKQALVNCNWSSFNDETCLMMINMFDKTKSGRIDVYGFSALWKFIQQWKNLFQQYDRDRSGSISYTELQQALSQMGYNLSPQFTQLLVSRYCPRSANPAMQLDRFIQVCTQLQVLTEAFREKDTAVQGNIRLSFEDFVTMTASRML

[9] = target: T9, HeLa cell extract proteins (Homo sapiens, UniProt Q9UHI6)
T9 construct: endogenous in cells; host or cells: HeLa cell extract
T9 sequence (Q9UHI6 1-824): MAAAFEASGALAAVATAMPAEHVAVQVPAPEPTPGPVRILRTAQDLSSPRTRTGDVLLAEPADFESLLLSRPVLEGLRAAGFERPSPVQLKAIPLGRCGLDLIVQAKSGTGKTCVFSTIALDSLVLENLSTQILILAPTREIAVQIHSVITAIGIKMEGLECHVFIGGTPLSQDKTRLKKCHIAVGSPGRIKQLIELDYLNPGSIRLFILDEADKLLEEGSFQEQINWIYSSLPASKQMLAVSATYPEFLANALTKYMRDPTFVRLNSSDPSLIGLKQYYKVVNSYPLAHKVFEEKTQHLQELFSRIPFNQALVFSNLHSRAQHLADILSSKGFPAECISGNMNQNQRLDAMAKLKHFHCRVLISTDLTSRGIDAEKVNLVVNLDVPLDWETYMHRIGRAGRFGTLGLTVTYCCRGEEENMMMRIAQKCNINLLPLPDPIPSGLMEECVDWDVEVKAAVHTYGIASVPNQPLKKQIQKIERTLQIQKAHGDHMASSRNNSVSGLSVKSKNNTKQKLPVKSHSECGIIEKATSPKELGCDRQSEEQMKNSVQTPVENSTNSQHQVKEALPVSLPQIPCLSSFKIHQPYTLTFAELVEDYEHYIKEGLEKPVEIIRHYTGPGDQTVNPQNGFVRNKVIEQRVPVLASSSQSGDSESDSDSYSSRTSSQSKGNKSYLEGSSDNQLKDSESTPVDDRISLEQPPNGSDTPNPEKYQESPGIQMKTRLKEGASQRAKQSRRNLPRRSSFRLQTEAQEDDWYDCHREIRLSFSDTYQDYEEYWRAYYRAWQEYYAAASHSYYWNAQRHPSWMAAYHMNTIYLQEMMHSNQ

[10] = HeLa, protein CTSC (DIPEPTIDYL-PEPTIDASE 1 PRECURSOR)
[11] = HeLa, protein BIRC6 (B[…] REPEAT-CONTAINING 6)

T4 sequence (P53634 25-463): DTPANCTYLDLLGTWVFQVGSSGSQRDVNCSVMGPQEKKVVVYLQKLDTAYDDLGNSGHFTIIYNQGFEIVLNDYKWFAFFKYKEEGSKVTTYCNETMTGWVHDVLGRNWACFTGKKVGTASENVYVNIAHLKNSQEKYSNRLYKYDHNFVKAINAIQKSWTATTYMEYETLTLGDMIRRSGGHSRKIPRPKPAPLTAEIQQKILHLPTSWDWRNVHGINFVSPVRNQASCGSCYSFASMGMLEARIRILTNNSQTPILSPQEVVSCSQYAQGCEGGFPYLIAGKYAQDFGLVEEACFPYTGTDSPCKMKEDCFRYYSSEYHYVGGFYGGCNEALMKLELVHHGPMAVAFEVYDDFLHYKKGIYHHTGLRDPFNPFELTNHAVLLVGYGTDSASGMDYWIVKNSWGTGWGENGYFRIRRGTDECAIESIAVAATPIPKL
T6 sequence (Q9BQB6 whole entry): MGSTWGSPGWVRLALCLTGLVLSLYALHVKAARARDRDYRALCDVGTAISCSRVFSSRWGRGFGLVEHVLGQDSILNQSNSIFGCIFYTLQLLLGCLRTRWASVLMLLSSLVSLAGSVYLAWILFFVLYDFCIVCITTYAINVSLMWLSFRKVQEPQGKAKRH
T5 sequence (Q15436 whole entry): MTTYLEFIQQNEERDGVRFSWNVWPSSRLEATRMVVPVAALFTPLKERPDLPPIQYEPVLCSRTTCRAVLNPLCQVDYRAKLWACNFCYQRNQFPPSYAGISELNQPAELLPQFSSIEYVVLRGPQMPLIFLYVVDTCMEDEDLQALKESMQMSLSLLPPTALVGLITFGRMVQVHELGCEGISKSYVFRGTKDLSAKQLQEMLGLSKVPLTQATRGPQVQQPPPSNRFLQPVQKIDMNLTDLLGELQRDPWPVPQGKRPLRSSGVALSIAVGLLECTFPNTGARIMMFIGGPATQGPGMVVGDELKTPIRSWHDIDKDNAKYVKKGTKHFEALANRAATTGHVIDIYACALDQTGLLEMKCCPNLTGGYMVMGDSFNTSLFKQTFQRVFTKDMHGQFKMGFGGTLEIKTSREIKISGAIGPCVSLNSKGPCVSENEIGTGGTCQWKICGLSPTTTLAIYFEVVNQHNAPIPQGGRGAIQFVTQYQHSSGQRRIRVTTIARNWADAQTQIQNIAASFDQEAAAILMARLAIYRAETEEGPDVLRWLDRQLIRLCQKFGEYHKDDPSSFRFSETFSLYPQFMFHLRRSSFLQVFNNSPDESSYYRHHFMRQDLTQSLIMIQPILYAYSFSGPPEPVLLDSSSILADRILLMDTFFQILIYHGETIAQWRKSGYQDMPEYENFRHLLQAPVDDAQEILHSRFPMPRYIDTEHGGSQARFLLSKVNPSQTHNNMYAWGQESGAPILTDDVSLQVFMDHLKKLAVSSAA

| Structure (SMILES) | fold changes relative to vehicle control ([1]; HeLa, protein HEXB) | fold changes relative to vehicle control ([2]; protein ACAT1, HeLa) | fold changes relative to vehicle control ([3]; HeLa, captured protein ATP5C1) | fold changes relative to vehicle control [4, 10] | fold changes relative to vehicle control ([5]; HeLa, protein SEC23A) | fold changes relative to vehicle control ([6]; HeLa, protein VKORC1) | fold changes relative to vehicle control [7, 11] | fold changes relative to vehicle control ([8]; HeLa, captured protein PEF1) | fold changes relative to vehicle control ([9]; HeLa, protein DDX20) | fold changes relative to vehicle control ([3]; HeLa, protein ATP5C1) | fold changes relative to vehicle control ([4]; protein CTSC, HeLa) | fold changes relative to vehicle control ([7]; HeLa, protein BIRC6) | fold changes relative to vehicle control ([8]; HeLa, protein PEF1) | fold changes relative to vehicle control ([9]; captured protein DDX20, HeLa) | other results |
| --- | --- | --- | --- | --- | --- | --- | --- | --- | --- | --- | --- | --- | --- | --- | --- |
| Nc1nc2c(c(=O)[nH]1)N(C=O)C(CNc1ccc(C(=O)N[C@@H](CCC(=O)O)C(=O)O)cc1)CN2 (stereo partly drawn) [LEU, leucovorin] | 0.97 | 1 | 0.99 | 1.03 | 0.94 | 1.02 | 1.08 | 0.95 | 0.93 |  |  |  |  |  |  |
| Nc1nc2[nH]cc(CCc3ccc(C(=O)N[C@@H](CCC(=O)O)C(=O)O)cc3)c2c(=O)[nH]1 [PTX, pemetrexed] |  |  |  |  |  |  |  |  |  |  |  |  |  |  | fold changes relative to vehicle control [1]: 1; fold changes relative to vehicle control [2]: 0.9; fold changes relative to vehicle control [3]: 1.01; fold changes relative to vehicle control [4]: 0.84; fold changes relative to vehicle control [5]: 0.94; fold changes relative to vehicle control [6]: 1.01; fold changes relative to vehicle control [7]: 1; fold changes relative to vehicle control [8]: 0.99; fold changes relative to vehicle control [9]: 0.97 |
| CCCCCCOc1ccc(Cc2cnc(N)nc2N)cc1 [compound 1] | 1.04 | 1.22 |  |  | 1.1 | 0.98 |  |  |  | 1.05 | 0.89 | 1.06 | 0.88 | 0.89 |  |
| CCCCCCOc1cccc(Cc2cnc(N)nc2N)c1 [compound 2] | 1.06 | 1.75 |  |  | 1.07 | 1.05 |  |  |  | 0.9 | 0.95 | 0.92 | 0.76 | 1 |  |
| Nc1nc2cccc(-c3ccccc3)c2n1Cc1ccc(Cl)c(Cl)c1 [compound 3] | 0.93 | 0.84 |  |  | 1.04 | 1.03 |  |  |  | 0.89 | 0.86 | 1.12 | 1.06 | 0.92 |  |
| NCCOCCOCC(=O)Nc1nc2ncc(CNc3ccc(C(=O)NC(CCC(=O)O)C(=O)O)cc3)nc2c(=O)[nH]1 (stereo not drawn) [compound 6] | 1.05 | 1.31 | 0.97 | 0.82 | 0.89 | 1.04 | 1.06 | 0.87 | 0.98 |  |  |  |  |  |  |
| NCCCNc1ccc(C(=O)NC(CCC(=O)O)C(=O)O)cc1 (stereo not drawn) [compound 7] | 1.06 | 0.87 | 0.99 | 0.97 | 1.1 | 1.11 | 1.12 | 0.99 | 0.94 |  |  |  |  |  |  |
